In patent publication US5434295A (priority 1994, dated 1995):
Read-outs that look alike come from different tables or passages of the source.

What was measured:
[1] = system: NMDA-induced toxicity in primary cerebral cortical cell cultures; experiment: Protection of cortical neurons in culture from NMDA-induced toxicity; format: cell-based; details: Rattus norvegicus, NMDA 1000 μM; for inhibition at 10 µM: 10 μM compound
Procedure: Blockage of NMDA toxicity in tissue culture: Neurons can be grown in culture and survive for several weeks. […] The ability of various compounds to prevent the morphological and metabolic changes induced by NMDA is considered a measure of their neuroprotective activity in culture.
The neuroprotective effects of the compounds of the invention were tested on neurons exposed to various excitotoxins in culture. The compounds tested included HU-259, HU-260, HU-270 and HU-271, which were all shown to have NMDA antagonist properties in mice (Example 13).
The test drugs were examined for their ability to protect neurons in culture from toxic effects of agonists of the different glutamate receptor subtypes (agonists of ionotropic and/or metabotropic glutamate receptors), e.g. NMDA, AMPA, kainate and quisqualate. The culture conditions and assay conditions were all performed as described in Eshhar et al. (NeuroReport 5, No. 3, 1993). In brief, primary cerebral cortical cell cultures were prepared from 18-20 day old rat fetuses by enzymatic dissociation. Resulting cell suspensions were plated on confluent cortical glial cell feder layer (prepared 2 weeks earlier by a similar method). Neurons were grown in MEM media containing 0.6% glucose, FUDR/Uridine mixture and N2 supplement (insulin, progesterone, putrescine, selenium and transferrin). Cells at 10 days in culture were exposed to the various toxins either alone, or in the presence of the tested compounds. All exposures were carried out at 37° C. for 20-24 hours before assessing neuronal cell damage and neuroprotectant activity. Cell viability was determined morphologically following neuron specific enolase immunostaining of cells using the ABC biotin-avidin complex method, and determined quantitatively by measuring the extent of mitochondrial activity in living cells using the XTT-based assay. XTT is reduced by mitochondrial dehydrogenase to a soluble colored formazan. The density of color formation (O.D.), which is proportional to mitochondrial activity, was measured by a plate ELISA reader. The extent of neuroprotectant activity is expressed as % of cells rescued by the drugs tested.
Neuroprotectant activity of HU-259 (10 μM)--was assessed using orphological criteria only. Morphological observations (as determined by neuron specific enolase immunostaining) clearly indicated complete neuroprotection (100%).

[2] = system: MK-801 sites located at the NMDA receptor ion channel; experiment: Inhibition of [3H]MK-801 binding to rat forebrain membranes; details: for % inhibition of tritiated ligand binding to membranes, 3[H]-MK-801: 100 μM analogue
Text: Binding to the NMDA receptor linked channel: Non competitive antagonists of NMDA, the primary example of which is the compound MK-801, bind to a site within the NMDA receptor channel thus preventing the activation of the receptor-channel complex and the consequent neurotoxicity. The ability of various compounds to compete with the binding of tritium labeled MK-801 to brain membranes is considered a measure of their potency as NMDA non-competitive antagonists.
The association of pinene derivatives with acetylcholine-muscarinic receptor and with MK-801 sites located at the NMDA receptor ion channel.
Inhibition of ^3 [H]MK-801 binding to rat forebrain membranes by the test HU-211 compounds was carried out as described for HU-211 in Eshhar et al., NeuroReport 5, No. 3, 1993) (Methods section). The test compounds were solubilized in a mixture of ethanol:Emulfor:water (20:3:57).

Rat brain NMDA receptors = experiment: Blockade of NMDA response in Xenopus oocytes injected with rat brain RNA; format: biochemical
Text: Blockade of NMDA-induced voltage changes in Xenopus oocytes: Frog oocytes can be injected with genetic material from various species and organs, resulting in the expression of the various molecules encoded by this material in the oocyte. Injection of rat brain RNA provides active NMDA receptors on the ooctye surface. Application of NMDA results in changes in the electrical activity recorded from the oocytes. Various NMDA antagonists block the NMDA-induced changes in electrical activity and their potency and dose dependence in this system indicate their potency and mode of action as NMDA antagonists.
The oocyte is the most widely used system for studying the molecular, biophysical and pharmacological properties of expressed voltage- or transmitter-operated ion channels. This giant cell offers several advantages for this type of studies. It can be readily used for two-electrode voltage clamp studies, translates injected mRNA from different sources and functionally expresses the translated proteins, and it is also readily amenable for intracellular micron injections. Importantly, the recordings of neurotransmitter- or voltage-induced currents in a single oocyte are extremely stable and can performed repeatedly for 2-3 hours; this allows the performance of a full dose-response relation in single oocytes.
Rat brain NMDA receptors were expressed in Xenopus oocytes injected with total rat brain RNA. Dascal and Lotan. The conditions for injection culture and electrical recording from oocytes were as described by Dascal and Lotan (in: Methods in Molecular Biology, Longstaff and Revest, eds. Vol. 13, Chapter 13, Humana Press, N.J., 1992).
Briefly, female Xenopus were anesthetized by immersion in water containing 0.15% tricaine methanesulfonate and a small incision was made in the lower abdomen. Ovary fragments were removed into ND-96.
The oocytes were defolliculated by the collagenase treatment in order to remove the follicle cell layer. Defolliculated oocytes were injected with total rat brain RNA and incubated for 2-4 days at 22° C. in sterile NDE-96 solution. ND-96 solution contains (in mM): NaCl - 96, KCl - 2, CaCl2 - 1.8, Hepes - 5 (pH=7.4-7.6). NDE-96 contains in addition, 2.5 mM sodium pyruvate, 100 unit/ml penicillin, 100 μg/ml streptomycin. A single oocyte was placed in a 1 ml bath constantly superfused with ND-96 solution at room temperature. The cell was impaled with two microelectrodes and held at membrane potential of -60 mV using voltage clamp circuit.
RNA was extracted from the brain of 14-day old rat brain. Each oocyte was injected with 50 nl total RNA (4-8 mg/ml in water, stored at -80° C. in […] aliquots).
NMDA receptors were activated by application of NMDA with glycine in Mg-free ND-96 solution. It was shown previously and also observed in this study that the entry of calcium ions through the NMDA receptor-channel evokes a Ca-dependent Cl^- current which appeared as an early inward current peak preceding and overlapping the actual NMDA response and hindering a quantitative pharmacological study of NMDA antagonists. Experimental conditions were therefore worked out aimed at eliminating the Cl^- current. The best protocol employed the use of Ca-free, Ba-containing solution, avoiding repetitive application of antagonists, as well as other conditions including optimal perfusion rate and optimal intervals between repetitive NMDA applications.
Several NMDA receptor blockers were tested. These compounds have […] and have to be dissolved in 100% dimethyl sulfoxide (DMSO) and diluted for use in ND-96 that contained 1% DMSO. Therefore, the effect of 1% DMSO on the response to 10^-4 M NMDA and 5×10^-6 M glycine was examined. DMSO had no effect on NMDA response in three different cells.
Eight putative NMDA antagonists of the HU group, including 270, 271 and 259 were tested for anti-NMDA activity at a glutamate receptor. […]

[3] = Cortical neurone, read-out: % of cells rescued from NMDA-induced toxicity

| SMILES | inhibition at 10 µM ([1]; morphological criteria only (neuron specific enolase immunostaining), read-out: % of cells rescued from NMDA-induced toxicity / complete neuroprotection) | % inhibition of tritiated ligand binding to membranes, 3[H]-MK-801 [2] | Ki ([2]; [3H]MK801 binding, rat forebrain membranes, representative experiment in triplicate (HU259), read-out: inhibition constant (K1)) | selectivity NMDA over AMPA/kainate receptors (Rat brain NMDA receptors) | % inhibition of NMDA (Rat brain NMDA receptors; 1 μM) | % inhibition of NMDA (Rat brain NMDA receptors; 10 μM) | mode of NMDA antagonism (Rat brain NMDA receptors; Lineweaver-Burke analysis) | concentration at which inhibitory activity was first apparent (Rat brain NMDA receptors; NMDA response) | inhibition at 10 µM [1, 3] | inhibition at 1 µM ([1]; Cortical neurone, 1 μM compound, read-out: % of cells rescued from NMDA-induced toxicity (concentration dependence)) | inhibition at 2 µM ([1]; Cortical neurone, 2 μM compound, read-out: % of cells rescued from NMDA-induced toxicity (concentration dependence)) | inhibition at 5 µM ([1]; Cortical neurone, 5 μM compound, read-out: % of cells rescued from NMDA-induced toxicity (concentration dependence)) |
| --- | --- | --- | --- | --- | --- | --- | --- | --- | --- | --- | --- | --- |
| CCCCCCC(C)(C)c1cc(OC(C)=O)c([C@H]2C=C(C(=O)O)[C@H]3C[C@@H]2C3(C)C)c(OC(C)=O)c1 [(+)-4-[4-DMH-2,6 diacetoxyphenyl]-2-carboxy-6,6-dimethylbicyclo[3.1.1]hept-2-en] | 100% | 90.0% | 7.6 µM | selective for the NMDA over AMPA/kainate receptors | 35% | 41% | non-competitive NMDA antagonists | 10 nM | – | – | – | – |
| CCCCCCC(C)(C)c1cc(OC(C)=O)c([C@H]2C=C(C(=O)N(CC)CC)[C@H]3C[C@@H]2C3(C)C)c(OC(C)=O)c1 [HU-270] | – | – | – | – | 20% | – | – | – | 0% | – | – | – |
| CCCCCCC(C)(C)c1cc(OC(C)=O)c([C@H]2C=C(C(=O)NCCO)[C@H]3C[C@@H]2C3(C)C)c(OC(C)=O)c1 [HU-271] | – | 46.3% | – | – | 16% | 20% | – | – | 100% | 25% | 27% | 68% |
